Data from PubChem BioAssay AID1963983 (Molecular Pharmacology Branch, DTP, NCI, 2024).
Values belong to the molecule of their own block, whether it stands above or below them.

Test system: 186277-243-T-J2-PDC multi-cell spheroid viability
Test: Anticancer human tumor 186277-243-T-J2-PDC patient-derived colon adenocarcinoma cell line growth inhibition [PI3K]
Conditions: for IC50: curve of first compound; for viability, T/C: stronger effect = lower value
Source text: Combinatorial screen of targeted agents with the PI3K inhibitors inavolisib, alpelisib, duvelisib, and copanlisib in multi-cell type tumor spheroids
A high-throughput screen of multi-cell type tumor spheroids was designed to identify active combinations of targeted small molecules and PI3K pathway inhibitors. Complex spheroids include a stromal component modeled by human endothelial cells (HUVEC) and fibroblasts modeled by human mesenchymal stem cells (MSCs). The concentration ranges selected for each drug and investigational agent were based upon clinically achievable concentrations if the clinical Cmax of the agent was known.
Compounds. The drugs and investigational agents: inavolisib (NSC800729), alpelisib (NSC765974), duvelisib (NSC772469), copanlisib (NSC816437), ipatasertib (NSC767898), afuresertib (NSC778305), talazoparib (NSC767125), sapanisertib (NSC764658), selumetinib (NSC741078), tovorafenib (DAY101, NSC766906), vemurafenib (NSC761431), ravoxertinib (NSC781343), sotorasib (NSC818433), MRTX1133 (NSC 836407), abemaciclib (NSC 768073), palbociclib (NSC758247), venetoclax (NSC 766270), SY5609 (NSC837396), enzalutamide (NSC755605), and darolutamide (NSC825331), were obtained from the National Cancer Institute (NCI) Developmental Therapeutics Program Chemical Repository. The FDA-approved anticancer drug set is available from the NCI Developmental Therapeutics Program. […] The stock solutions were prepared in dimethyl sulfoxide (DMSO, Sigma-Aldrich, St. Louis, MO, cat. D2650) at 800-fold the tested concentration and stored at -70 degrees C prior to their use. All drugs and investigational agents were tested over a range starting from a high concentration at or near the clinical Cmax and decreasing in half-log increments. If the clinical Cmax for an agent had not been determined, the highest concentration tested was 10 microM.
Cell Culture. All cells were maintained in an incubator at 37 degrees C and 5% CO2 with 95% humidity. The PDC lines were cultured according to standard operating procedures established by the NCI PDMR (https://pdmr.cancer.gov/sops/default.htm). All PDCs were thawed and cultured in Matrigel-coated flasks prepared with a working solution of 1X Ham's F-12 nutrient mix, without supplementation (Invitrogen, Waltham, MA, cat. 11765054), 100 U/mL penicillin-streptomycin (Invitrogen, cat. 15140122), and 2.5% Matrigel (Corning Inc., Corning, NY, cat. 354248) for the first three passages. The 354836-022-R-J1-PDC, 475296-252-R-J1-PDC, and 997726-040-R-J2-PDC lines were cultured in 6A media, which includes advanced DMEM/F-12 (Thermo Fisher Scientific, cat. 12634028), 10 mM HEPES (Thermo Fisher Scientific, cat. 15630080), 1X GlutaMAX supplement (Thermo Fisher Scientific, cat. 35050061), 0.1 mg/mL primocin (InvivoGen, San Diego, CA, cat. ant-pm-2), 10% defined fetal bovine serum, heat inactivated (HyClone Laboratories Inc., Logan, UT, cat. SH30070.03HI), 50% L-WRN conditioned media (ATCC, cat. CRL-3276), 1.25 mM N-Acetyl-L-cysteine (Sigma-Aldrich, cat. A9165), 10 mM nicotinamide (Sigma-Aldrich, cat. N0636), 1X B-27 supplement (Thermo Fisher Scientific, cat. 17504044), 1X N-2 supplement (Thermo Fisher Scientific, cat. 17502048), and 10 microM Y-27632 dihydrochloride (Tocris Bioscience, Bristol, United Kingdom, cat. 1254). The 624824-186-R-J2-PDC line was cultured in 6C/Colon 1B media, which includes all 6A media components plus 50 ng/mL human EGF recombinant protein (Thermo Fisher Scientific, cat. PHG0311). […]

[1] = second compound 0.00316 µM, first compound 0.0316 µM
[2] = second compound 0.00316 µM, first compound 0.1 µM
[3] = second compound 0.01 µM, first compound 0.0316 µM
[4] = second compound 0.01 µM, first compound 0.1 µM
[5] = second compound 0.0316 µM, first compound 0.0316 µM
[6] = second compound 0.0316 µM, first compound 0.1 µM
[7] = second compound 0.1 µM, first compound 0.0316 µM
[8] = second compound 0.1 µM, first compound 0.1 µM
[9] = second compound 0.316 µM, first compound 0.0316 µM
[10] = second compound 0.316 µM, first compound 0.1 µM
[11] = second compound 1 µM, first compound 0.0316 µM
[12] = second compound 1 µM, first compound 0.1 µM
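Note: spheroids exposed to compounds for seven days before viability reading.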
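Throughout, for viability, T/C: 100% = DMSO vehicle control viability.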

IC50 (second compound 0.00316 µM): 919 nM | IC50 (second compound 0.01 µM): 551 nM | IC50 (second compound 0.0316 µM): 178 nM | IC50 (second compound 0.1 µM): < 31.6 nM | IC50 (second compound 0.316 µM): < 31.6 nM | IC50 (second compound 1 µM): < 31.6 nM
SMILES: CC(C)NCC(C(=O)N1CCN(c2ncnc3c2C(C)CC3O)CC1)c1ccc(Cl)cc1 (centres undefined) + COc1c(OCCCN2CCOCC2)ccc2c3n(c(=NC(=O)c4cnc(N)nc4)nc12)CCN3
viability, T/C [1]: 93.9% | viability, T/C [2]: 86.5% | viability, T/C (second compound 0.00316 µM, first compound 0.316 µM): 73.1% | viability, T/C (second compound 0.00316 µM, first compound 1 µM): 46.9% | viability, T/C (second compound 0.00316 µM, first compound 3.16 µM): 30.9% | viability, T/C (second compound 0.00316 µM, first compound 10 µM): 20.5% | viability, T/C [3]: 102% | viability, T/C [4]: 93.2% | viability, T/C (second compound 0.01 µM, first compound 0.316 µM): 68.8% | viability, T/C (second compound 0.01 µM, first compound 1 µM): 29.2% | viability, T/C (second compound 0.01 µM, first compound 3.16 µM): 20.6% | viability, T/C (second compound 0.01 µM, first compound 10 µM): 12.2% | viability, T/C [5]: 69.4% | viability, T/C [6]: 62.7% | viability, T/C (second compound 0.0316 µM, first compound 0.316 µM): 37.1% | viability, T/C (second compound 0.0316 µM, first compound 1 µM): 23.2% | viability, T/C (second compound 0.0316 µM, first compound 3.16 µM): 15.2% | viability, T/C (second compound 0.0316 µM, first compound 10 µM): 10.8% | viability, T/C [7]: 21.8% | viability, T/C [8]: 16.4% | viability, T/C (second compound 0.1 µM, first compound 0.316 µM): 11% | viability, T/C (second compound 0.1 µM, first compound 1 µM): 7.77% | viability, T/C (second compound 0.1 µM, first compound 3.16 µM): 7.84% | viability, T/C (second compound 0.1 µM, first compound 10 µM): 5.5% | viability, T/C [9]: 5.04% | viability, T/C [10]: 3.98% | viability, T/C (second compound 0.316 µM, first compound 0.316 µM): 5.15% | viability, T/C (second compound 0.316 µM, first compound 1 µM): 10.1% | viability, T/C (second compound 0.316 µM, first compound 3.16 µM): 6.04% | viability, T/C (second compound 0.316 µM, first compound 10 µM): 8.76% | viability, T/C [11]: 1.65% | viability, T/C [12]: 3.37% | viability, T/C (second compound 1 µM, first compound 0.316 µM): 1.85% | viability, T/C (second compound 1 µM, first compound 1 µM): 2.98% | viability, T/C (second compound 1 µM, first compound 3.16 µM): 2.47% | viability, T/C (second compound 1 µM, first compound 10 µM): 2.26%

IC50 (second compound 0.00316 µM): > 100 nM | IC50 (second compound 0.01 µM): > 100 nM | IC50 (second compound 0.0316 µM): > 100 nM | IC50 (second compound 0.1 µM): > 100 nM | IC50 (second compound 0.316 µM): 46.8 nM | IC50 (second compound 1 µM): 0.592 nM
SMILES: Cn1ncnc1[C@H]1c2n[nH]c(=O)c3cc(F)cc(c23)N[C@@H]1c1ccc(F)cc1 + CC(Nc1ccc2c(c1)OCCn1cc(N3C(=O)OCC3C(F)F)nc1-2)C(N)=O
viability, T/C (second compound 0.00316 µM, first compound 0.000316 µM): 93.7% | viability, T/C (second compound 0.00316 µM, first compound 0.001 µM): 85.8% | viability, T/C (second compound 0.00316 µM, first compound 0.00316 µM): 105% | viability, T/C (second compound 0.00316 µM, first compound 0.01 µM): 91% | viability, T/C [1]: 101% | viability, T/C [2]: 94.9% | viability, T/C (second compound 0.01 µM, first compound 0.000316 µM): 101% | viability, T/C (second compound 0.01 µM, first compound 0.001 µM): 102% | viability, T/C (second compound 0.01 µM, first compound 0.00316 µM): 104% | viability, T/C (second compound 0.01 µM, first compound 0.01 µM): 102% | viability, T/C [3]: 102% | viability, T/C [4]: 98.6% | viability, T/C (second compound 0.0316 µM, first compound 0.000316 µM): 117% | viability, T/C (second compound 0.0316 µM, first compound 0.001 µM): 107% | viability, T/C (second compound 0.0316 µM, first compound 0.00316 µM): 101% | viability, T/C (second compound 0.0316 µM, first compound 0.01 µM): 97.9% | viability, T/C [5]: 101% | viability, T/C [6]: 89% | viability, T/C (second compound 0.1 µM, first compound 0.000316 µM): 102% | viability, T/C (second compound 0.1 µM, first compound 0.001 µM): 105% | viability, T/C (second compound 0.1 µM, first compound 0.00316 µM): 112% | viability, T/C (second compound 0.1 µM, first compound 0.01 µM): 99.5% | viability, T/C [7]: 93.5% | viability, T/C [8]: 69.4% | viability, T/C (second compound 0.316 µM, first compound 0.000316 µM): 80.6% | viability, T/C (second compound 0.316 µM, first compound 0.001 µM): 84.4% | viability, T/C (second compound 0.316 µM, first compound 0.00316 µM): 65% | viability, T/C (second compound 0.316 µM, first compound 0.01 µM): 64.8% | viability, T/C [9]: 53.7% | viability, T/C [10]: 43.3% | viability, T/C (second compound 1 µM, first compound 0.000316 µM): 52.2% | viability, T/C (second compound 1 µM, first compound 0.001 µM): 46.6% | viability, T/C (second compound 1 µM, first compound 0.00316 µM): 46.9% | viability, T/C (second compound 1 µM, first compound 0.01 µM): 39.4% | viability, T/C [11]: 31.9% | viability, T/C [12]: 26.6%
